Measurements published in the supplement of paper PMC11061612.

Tests used:
Test in all cases: Bliss excess, mean over the matrix (fraction); higher = more synergy
[1] = tested on: ONS-76 (Other Solid Carcinomas)
How it was run: (§1)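 After 24 hours at 37°C and 5% CO2 in 1536-well plates, cells in DMEM/F12 or RPMI plus 10% FBS received two-drug dose matrices for 72 hours. Viability came from CellTiter-Glo 2.0 luminescence and was scaled as inhibition, anchored at 0 by vehicle wells and at 1 by blank wells. Combination Emax is taken as the second-highest inhibition in the matrix, and Bliss excess as the observed combination effect less EA + EB − EA·EB, with EA and EB the single-agent effects.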

U-2-OS (Osteosarcoma) = tested on: U-2-OS (Osteosarcoma)
How it was run: as §1

[2] = tested on: MDST8 (Colorectal Carcinoma)
How it was run: as §1

[3] = tested on: KARPAS-422 (B-Cell Non-Hodgkin's Lymphoma)
How it was run: as §1

[4] = tested on: BICR22 (Oral Cavity Carcinoma)
How it was run: as §1

[5] = tested on: NCI-H2141 (Small Cell Lung Carcinoma)
How it was run: as §1

[6] = tested on: SK-MG-1 (Low Grade Glioma)
How it was run: as §1

[7] = tested on: OS-RC-2 (Kidney Carcinoma)
How it was run: as §1

CAS-1 (Glioblastoma) = tested on: CAS-1 (Glioblastoma)
How it was run: as §1

[8] = tested on: A549 (Lung Adenocarcinoma)
How it was run: as §1

[9] = tested on: NCI-H1693 (Lung Adenocarcinoma)
How it was run: as §1

[10] = tested on: TT2609-C02 (Thyroid Gland Carcinoma)
How it was run: as §1

[11] = tested on: ECC10 (Gastric Carcinoma)
How it was run: as §1

[12] = tested on: SISO (Cervical Carcinoma)
How it was run: as §1

Hs-445 (Non-Cancerous) = tested on: Hs-445 (Non-Cancerous)
How it was run: as §1

NCI-H2591 (Mesothelioma) = tested on: NCI-H2591 (Mesothelioma)
How it was run: as §1

PA-1 (Ovarian Carcinoma) = tested on: PA-1 (Ovarian Carcinoma)
How it was run: as §1

[13] = tested on: CCK-81 (Colorectal Carcinoma)
How it was run: as §1

[14] = tested on: COLO-320-HSR (Colorectal Carcinoma)
How it was run: as §1

FU97 (Gastric Carcinoma) = tested on: FU97 (Gastric Carcinoma)
How it was run: as §1

CC(=O)c1c(C)c2cnc(Nc3ccc(N4CCNCC4)cn3)nc2n(C2CCCC2)c1=O [Palbociclib] + Cn1cnc2c(F)c(Nc3ccc(Br)cc3Cl)c(C(=O)NOCCO)cc21 [Selumetinib] (first compound max 10 µM, 7x7, partner max 10 µM)
Bliss excess [1]: 0.0132 | Bliss excess (U-2-OS (Osteosarcoma)): -0.0134 | Bliss excess [2]: -0.031 | Bliss excess [3]: 0.062 | Bliss excess [4]: 0.102 | Bliss excess [5]: -0.0432 | Bliss excess [6]: 0.0489 | Bliss excess [7]: -0.0712 | Bliss excess (CAS-1 (Glioblastoma)): -0.018 | Bliss excess [8]: -0.0413 | Bliss excess [9]: -0.0306 | Bliss excess [10]: -0.0666 | Bliss excess [11]: -0.0111 | Bliss excess [12]: -0.0488 | Bliss excess (Hs-445 (Non-Cancerous)): -0.0852 | Bliss excess (NCI-H2591 (Mesothelioma)): -0.0161 | Bliss excess (PA-1 (Ovarian Carcinoma)): -0.0312 | Bliss excess [13]: 0.0832 | Bliss excess [14]: -0.0316 | Bliss excess (FU97 (Gastric Carcinoma)): 0.0707

CS(=O)(=O)CCNCc1ccc(-c2ccc3ncnc(Nc4ccc(OCc5cccc(F)c5)c(Cl)c4)c3c2)o1 [Lapatinib] + C[C@@H](Oc1cc(-c2cnn(C3CCNCC3)c2)cnc1N)c1c(Cl)ccc(F)c1Cl [Crizotinib] (first compound max 10 µM, 7x7, partner max 10 µM)
Bliss excess [1]: -0.0667 | Bliss excess (U-2-OS (Osteosarcoma)): -0.0263 | Bliss excess [2]: -0.0095 | Bliss excess [3]: -0.0649 | Bliss excess [4]: -0.0388 | Bliss excess [5]: -0.0758 | Bliss excess [6]: -0.0513 | Bliss excess [7]: -0.0186 | Bliss excess (CAS-1 (Glioblastoma)): -0.0634 | Bliss excess [8]: -0.0606 | Bliss excess [9]: -0.0069 | Bliss excess [10]: -0.023 | Bliss excess [11]: -0.0434 | Bliss excess [12]: -0.0214 | Bliss excess (Hs-445 (Non-Cancerous)): 0.0147 | Bliss excess (NCI-H2591 (Mesothelioma)): -0.0493 | Bliss excess (PA-1 (Ovarian Carcinoma)): 0.0128 | Bliss excess [13]: -0.0255 | Bliss excess [14]: -0.0416 | Bliss excess (FU97 (Gastric Carcinoma)): -0.0144

CC1(C)CCC(CN2CCN(c3ccc(C(=O)NS(=O)(=O)c4ccc(NCC5CCOCC5)c([N+](=O)[O-])c4)c(Oc4cnc5[nH]ccc5c4)c3)CC2)=C(c2ccc(Cl)cc2)C1 [Venetoclax] + CCN(CCO)CCCOc1ccc2c(Nc3cc(CC(=O)Nc4cccc(F)c4)[nH]n3)ncnc2c1 [AZD2811] (first compound max 1 µM, 7x7, partner max 1 µM)
Bliss excess [1]: -0.0244 | Bliss excess (U-2-OS (Osteosarcoma)): -0.0188 | Bliss excess [2]: -0.0011 | Bliss excess [3]: 0.242 | Bliss excess [4]: -0.0138 | Bliss excess [5]: 0.0609 | Bliss excess [6]: -0.0199 | Bliss excess [7]: -0.0484 | Bliss excess (CAS-1 (Glioblastoma)): -0.0052 | Bliss excess [8]: -0.0668 | Bliss excess [9]: 0.0169 | Bliss excess [10]: -0.0276 | Bliss excess [11]: 0.0068 | Bliss excess [12]: -0.0091 | Bliss excess (Hs-445 (Non-Cancerous)): 0.0894 | Bliss excess (NCI-H2591 (Mesothelioma)): -0.009 | Bliss excess (PA-1 (Ovarian Carcinoma)): 0.0002 | Bliss excess [13]: -0.0122 | Bliss excess [14]: 0.0052 | Bliss excess (FU97 (Gastric Carcinoma)): 0.024

CCN(CCO)CCCOc1ccc2c(Nc3cc(CC(=O)Nc4cccc(F)c4)[nH]n3)ncnc2c1 [AZD2811] + C[C@@H]1COCCN1C2=NC(=NC(=C2)C3(CC3)[S@](=N)(=O)C)C4=C5C=CNC5=NC=C4 [AZD6738] (first compound max 1 µM, 7x7, partner max 10 µM)
Bliss excess [1]: -0.0864 | Bliss excess (U-2-OS (Osteosarcoma)): -0.0297 | Bliss excess [2]: -0.0174 | Bliss excess [3]: -0.0581 | Bliss excess [4]: -0.059 | Bliss excess [5]: -0.0873 | Bliss excess [6]: -0.0271 | Bliss excess [7]: -0.0449 | Bliss excess (CAS-1 (Glioblastoma)): -0.0818 | Bliss excess [8]: -0.106 | Bliss excess [9]: -0.0654 | Bliss excess [10]: -0.0361 | Bliss excess [11]: -0.0454 | Bliss excess [12]: 0.0006 | Bliss excess (Hs-445 (Non-Cancerous)): -0.01 | Bliss excess (NCI-H2591 (Mesothelioma)): -0.0338 | Bliss excess (PA-1 (Ovarian Carcinoma)): -0.0116 | Bliss excess [13]: -0.0388 | Bliss excess [14]: -0.0366 | Bliss excess (FU97 (Gastric Carcinoma)): -0.0795

CN(C)CCCOc1ccc(-c2ccc3ncc4c(c3c2)n(C2CCOCC2)c(=O)n4C)cn1 [AZD0156] + O=C(c1cc(Cc2n[nH]c(=O)c3ccccc23)ccc1F)N1CCN(C(=O)C2CC2)CC1 [Olaparib] (first compound max 3 µM, partner max 3 µM)
Bliss excess [1]: 0.0366 | Bliss excess (U-2-OS (Osteosarcoma)): 0.0203 | Bliss excess [2]: 0.0269 | Bliss excess [3]: 0.0171 | Bliss excess [4]: -0.0003 | Bliss excess [5]: 0.0117 | Bliss excess [6]: 0.0333 | Bliss excess [7]: -0.0432 | Bliss excess (CAS-1 (Glioblastoma)): 0.0481 | Bliss excess [8]: 0.0069 | Bliss excess [9]: -0.0439 | Bliss excess [10]: 0.0251 | Bliss excess [11]: 0.0522 | Bliss excess [12]: 0.0631 | Bliss excess (Hs-445 (Non-Cancerous)): -0.0211 | Bliss excess (NCI-H2591 (Mesothelioma)): -0.0248 | Bliss excess (PA-1 (Ovarian Carcinoma)): 0.122 | Bliss excess [13]: -0.0131 | Bliss excess [14]: 0.104 | Bliss excess (FU97 (Gastric Carcinoma)): -0.0154

C=CCn1c(=O)c2cnc(Nc3ccc(N4CCN(C)CC4)cc3)nc2n1-c1cccc(C(C)(C)O)n1 [AZD1775] + C1CN(CCC1(C(=O)N[C@@H](CCO)C2=CC=C(C=C2)Cl)N)C3=NC=NC4=C3C=CN4 [Capivasertib] (first compound max 3 µM, partner max 3 µM)
Bliss excess [1]: -0.0258 | Bliss excess (U-2-OS (Osteosarcoma)): -0.0453 | Bliss excess [2]: -0.0769 | Bliss excess [3]: -0.0691 | Bliss excess [4]: 0.0369 | Bliss excess [5]: -0.0268 | Bliss excess [6]: -0.0212 | Bliss excess [7]: -0.085 | Bliss excess (CAS-1 (Glioblastoma)): 0.0104 | Bliss excess [8]: 0.015 | Bliss excess [9]: -0.0389 | Bliss excess [10]: 0.0087 | Bliss excess [11]: -0.0156 | Bliss excess [12]: -0.102 | Bliss excess (Hs-445 (Non-Cancerous)): -0.1 | Bliss excess (NCI-H2591 (Mesothelioma)): -0.035 | Bliss excess (PA-1 (Ovarian Carcinoma)): -0.0229 | Bliss excess [13]: -0.0214 | Bliss excess [14]: -0.0314 | Bliss excess (FU97 (Gastric Carcinoma)): 0.0946

COc1cc2c(cc1OCCCCCOc1cc3c(cc1OC)C(=O)N1C=C(C)C[C@H]1C=N3)N=C[C@@H]1CC(C)=CN1C2=O [SG3199] + O=C(c1cc(Cc2n[nH]c(=O)c3ccccc23)ccc1F)N1CCN(C(=O)C2CC2)CC1 [Olaparib] (first compound max 0.001 µM, 7x7, partner max 10 µM)
Bliss excess [1]: -0.0635 | Bliss excess (U-2-OS (Osteosarcoma)): -0.0203 | Bliss excess [2]: -0.0151 | Bliss excess [3]: -0.0044 | Bliss excess [4]: -0.0473 | Bliss excess [5]: -0.0682 | Bliss excess [6]: -0.0009 | Bliss excess [7]: -0.0484 | Bliss excess (CAS-1 (Glioblastoma)): -0.0058 | Bliss excess [8]: -0.0226 | Bliss excess [9]: -0.0209 | Bliss excess [10]: -0.0234 | Bliss excess [11]: -0.0238 | Bliss excess [12]: -0.0198 | Bliss excess (Hs-445 (Non-Cancerous)): -0.0116 | Bliss excess (NCI-H2591 (Mesothelioma)): -0.0414 | Bliss excess (PA-1 (Ovarian Carcinoma)): 0.0131 | Bliss excess [13]: 0.0003 | Bliss excess [14]: -0.0213 | Bliss excess (FU97 (Gastric Carcinoma)): -0.0513
